# Test results published in PubChem BioAssay (NCI).
#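 Growth conditions: 96-well plates. Treatment: test compound, 48 hours, 5 concentrations. Analysis: linear interpolation between bracketing concentrations; unreached endpoints set to highest concentration. Definition used: TGI = concentration required for complete inhibition of growth.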
# Assays:
# Test in all cases: NCI tumour cell line growth inhibition, 48 h
# 786-0 renal = system: 786-0 renal
# A498 renal = system: A498 renal
# A549 NSCLC = system: A549 NSCLC
# ACHN renal = system: ACHN renal
# BT-549 breast = system: BT-549 breast
# CAKI-1 renal = system: CAKI-1 renal
# CCRF-CEM leukemia = system: CCRF-CEM leukemia
# COLO 205 colon = system: COLO 205 colon
# DU-145 prostate = system: DU-145 prostate
# EKVX NSCLC = system: EKVX NSCLC
# HCC-2998 colon = system: HCC-2998 colon
# HCT-116 colon = system: HCT-116 colon
# HCT-15 colon = system: HCT-15 colon
# HL-60(TB) leukemia = system: HL-60(TB) leukemia
# HOP-62 NSCLC = system: HOP-62 NSCLC
# HOP-92 NSCLC = system: HOP-92 NSCLC
# HS 578T breast = system: HS 578T breast
# IGROV1 ovarian = system: IGROV1 ovarian
# K-562 leukemia = system: K-562 leukemia
# KM12 colon = system: KM12 colon
# M14 melanoma = system: M14 melanoma
# MALME-3M melanoma = system: MALME-3M melanoma
# MCF7 breast = system: MCF7 breast
# MDA-MB-231 breast = system: MDA-MB-231 breast
# MDA-MB-435 = system: MDA-MB-435
# MDA-N = system: MDA-N
# MOLT-4 leukemia = system: MOLT-4 leukemia
# NCI-H226 lung = system: NCI-H226 lung
# NCI-H23 lung = system: NCI-H23 lung
# NCI-H460 lung = system: NCI-H460 lung
# NCI-H522 lung = system: NCI-H522 lung
# NCI/ADR-RES ovarian = system: NCI/ADR-RES ovarian
# OVCAR-3 ovarian = system: OVCAR-3 ovarian
# OVCAR-4 ovarian = system: OVCAR-4 ovarian
# OVCAR-5 ovarian = system: OVCAR-5 ovarian
# OVCAR-8 ovarian = system: OVCAR-8 ovarian
# PC-3 prostate = system: PC-3 prostate
# RPMI-8226 leukemia = system: RPMI-8226 leukemia
# RXF 393 renal = system: RXF 393 renal
# SF-268 CNS = system: SF-268 CNS
# SF-295 CNS = system: SF-295 CNS
# SF-539 CNS = system: SF-539 CNS
# SK-MEL-2 melanoma = system: SK-MEL-2 melanoma
# SK-MEL-28 melanoma = system: SK-MEL-28 melanoma
# SK-MEL-5 melanoma = system: SK-MEL-5 melanoma
# SK-OV-3 ovarian = system: SK-OV-3 ovarian
# SN12C renal = system: SN12C renal
# SNB-19 CNS = system: SNB-19 CNS
# SNB-75 CNS = system: SNB-75 CNS
# SR leukemia = system: SR leukemia
# SW-620 colon = system: SW-620 colon
# T-47D breast = system: T-47D breast
# TK-10 renal = system: TK-10 renal
# U251 CNS = system: U251 CNS
# UACC-257 melanoma = system: UACC-257 melanoma
# UACC-62 melanoma = system: UACC-62 melanoma
# UO-31 renal = system: UO-31 renal
smiles,measurement,setting,value
COc1ccc2c(c1OC)C(=O)N1C2=Cc2c(cc3c(c2OC)OCO3)CC1N(C)C (configuration not stated),TGI,786-0 renal,> 100 µM
same,TGI,A498 renal,> 100 µM
same,TGI,A549 NSCLC,> 100 µM
same,TGI,ACHN renal,> 100 µM
same,TGI,BT-549 breast,> 100 µM
same,TGI,CAKI-1 renal,> 100 µM
same,TGI,CCRF-CEM leukemia,> 100 µM
same,TGI,COLO 205 colon,> 100 µM
same,TGI,DU-145 prostate,> 100 µM
same,TGI,EKVX NSCLC,> 100 µM
same,TGI,HCC-2998 colon,> 100 µM
same,TGI,HCT-116 colon,> 100 µM
same,TGI,HCT-15 colon,> 100 µM
same,TGI,HL-60(TB) leukemia,80.1 µM
same,TGI,HOP-62 NSCLC,> 100 µM
same,TGI,HOP-92 NSCLC,> 100 µM
same,TGI,HS 578T breast,> 100 µM
same,TGI,IGROV1 ovarian,> 100 µM
same,TGI,K-562 leukemia,> 100 µM
same,TGI,KM12 colon,> 100 µM
same,TGI,M14 melanoma,> 100 µM
same,TGI,MALME-3M melanoma,> 100 µM
same,TGI,MCF7 breast,> 100 µM
same,TGI,MDA-MB-231 breast,> 100 µM
same,TGI,MDA-MB-435,> 100 µM
same,TGI,MDA-N,> 100 µM
same,TGI,MOLT-4 leukemia,> 100 µM
same,TGI,NCI-H226 lung,> 100 µM
same,TGI,NCI-H23 lung,> 100 µM
same,TGI,NCI-H460 lung,> 100 µM
same,TGI,NCI-H522 lung,> 100 µM
same,TGI,NCI/ADR-RES ovarian,> 100 µM
same,TGI,OVCAR-3 ovarian,> 100 µM
same,TGI,OVCAR-4 ovarian,> 100 µM
same,TGI,OVCAR-5 ovarian,> 100 µM
same,TGI,OVCAR-8 ovarian,> 100 µM
same,TGI,PC-3 prostate,> 100 µM
same,TGI,RPMI-8226 leukemia,99.6 µM
same,TGI,RXF 393 renal,> 100 µM
same,TGI,SF-268 CNS,> 100 µM
same,TGI,SF-295 CNS,> 100 µM
same,TGI,SF-539 CNS,> 100 µM
same,TGI,SK-MEL-2 melanoma,> 100 µM
same,TGI,SK-MEL-28 melanoma,> 100 µM
same,TGI,SK-MEL-5 melanoma,> 100 µM
same,TGI,SK-OV-3 ovarian,> 100 µM
same,TGI,SN12C renal,> 100 µM
same,TGI,SNB-19 CNS,> 100 µM
same,TGI,SNB-75 CNS,> 100 µM
same,TGI,SR leukemia,> 100 µM
same,TGI,SW-620 colon,> 100 µM
same,TGI,T-47D breast,74.4 µM
same,TGI,TK-10 renal,> 100 µM
same,TGI,U251 CNS,> 100 µM
same,TGI,UACC-257 melanoma,> 100 µM
same,TGI,UACC-62 melanoma,> 100 µM
same,TGI,UO-31 renal,> 100 µM
